These results are taken from patent US20250127735A1, “NOVEL COMPOSITION COMPRISING N-ACETYLCYSTEINE FOR OVERCOMING THE ADVERSE EFFECTS OF A CHEMOTHERAPY” (PRONUTRI, priority 2022, published 2025).

“Also recorded” adds a separate entry of the source.

In data set [1] the test system is Arnt2, Piezo 2 and CaVα2δ-1 gene expression. Nature of the data set: qPCR of reporter genes in primary cultured DRG neurons exposed to cisplatin plus test molecules. It is filed as cell-based, mouse. Particulars: for effect on Piezo2, CaVα2δ-1 and ARNT2 expression, molecule taken alone: ex vivo primary cultured neurons, 24 h exposure to 1.25 μg/ml cisplatin (FIGS. 5-9).
Method: Treatment of the DRGs for 24 hours.
The effect of different molecules was tested on the expression of the same reporter genes, Pizeo 2, CaVα2δ-1 and ARNT2, using qPCR on primary cultured DRG neurons: • NAC • Beta-carotene (provitamin A) • Vitamin B12 • Luteolin (flavone)

For the next data set, the system named is DRG neurons. Nature of the data set: Phase-contrast microscopy of cultured DRG neurons (morphology, neuronal networks). It is filed as cell-based, mouse. Particulars: for effect on the morphology of DRG neurons (cell or network level): molecule taken alone with cisplatin, micrographs not shown.
The subject of data set [2] is Piezo2, CaVα2δ-1 and ARNT2 expression. Nature of the data set: Reporter gene expression in vivo in the animal exposed to a chemotherapy protocol. Particulars: animal exposed to a chemotherapy protocol (not shown).
Data set [3] concerns tactile hypersensitivity triggered by cisplatin and paclitaxel. Kind of data set: Von Frey test of tactile hypersensitivity / chemo-induced neuropathy. It is filed as in vivo, mouse.
For data set [4], the system named is Piezo 2, CaVα2δ-1, ARNT2, Mafb and Kv1.4 gene expression. Nature of the data set: qPCR of ion channel and transcription factor gene expression in mouse DRG primary culture treated with chemotherapy or oxidizing agent. The class given is cell-based. As for the experimental part:
Model: C57Bl6 females, 8 to 15 weeks old (sexually mature young adult mice)
The next morning, place 1.25 μg/ml cisplatin with the other molecules to be tested. […]
The RNA is extracted using Macherey-Nagel's “NucleoSpin RNA” kit.
Reverse transcriptions were performed following the protocol of the “SuperScript III Reverse Transcriptase” kit from Thermo Fisher Scientific, doubling the quantities of RNA and products used in order to obtain a higher concentration of cDNA.
The qPCRs were performed with undiluted cDNA obtained by reverse-transcription using 4.625 μL of cDNA and 5.375 μL of SyberROX PCR Mix (final 10 μL per well).
When the cycle threshold (CT)>35, the gene is considered to be not expressed in the cells analyzed.
To compare our results with and without treatment, we calculated the delta between the target gene and the reference gene (36B4) for each condition (e.g. dCTPIEZO2=CTPIEZO2−CT36B4=27.4−21.6=5.8 (control); 30.6-23.4=7.2 (cisplatin)).
We then calculated the delta delta CT of the target gene for the test condition and the control conditions (e.g. ddCTPIEZO2=dCTPIEZO2 (cisplatin)−[…]=7.2−5.8=1.4).
Finally, we determined the relative expression by calculating: 2^^−ddCT (e.g. for PIEZO2:2^^−ddCT=2^^−1.4=0.40).
The results correspond to the mean±SEM.
Mouse DRGs resulting from primary culture were treated with TBHP at 10 or 30 μM or with 1.25 μg/ml cisplatin (positive control) versus control (CTRL). mRNA expression was measured by qPCR and normalized with the 36B4 reference gene. The results correspond to the mean±SEM.

For the molecule `CC(=O)N[C@@H](CS)C(=O)O` [NAC, N-acetylcysteine], the “effect on Piezo2, CaVα2δ-1 and ARNT2 expression, molecule taken alone” value in data set [1] is “allow Piezo2, CaVα2δ-1 and ARNT2 expression levels to rise; also recorded: strongly limits this disruption in expression”. Besides, the “effect on the morphology of DRG neurons (cell or network level)” value with DRG neurons is recorded as “protective effect”. The “Piezo2, CaVα2δ-1 and ARNT2 expression levels in vivo” value in data set [2] is “allow Piezo2, CaVα2δ-1 and ARNT2 expression levels to rise”. In data set [3] (mouse model), the “chemo-induced neuropathies in a mouse model” value was “suppresses the resulting neuropathies”. Besides, in data set [3] (triggered by cisplatin and paclitaxel (not shown)), the “tactile hypersensitivity in response to mechanical stimuli (Von Frey test)” value is reported as “dramatically reduce tactile hypersensitivity”.
With `CC(C)(C)OO` [TBHP, tert-butyl hydroperoxide], the “expression of Kv1.4 (negative control)” value in data set [4] (TBHP at 10 or 30 μM (FIG. 4)) was “unaffected”.
For the molecule `CC1=C(/C=C/C(C)=C/C=C/C(C)=C/C=C/C=C(C)/C=C/C=C(C)/C=C/C2=C(C)CCCC2(C)C)C(C)(C)CCC1` [beta-carotene, Beta-carotene], the “effect on Piezo2, CaVα2δ-1 and ARNT2 expression, molecule taken alone” value in data set [1] is “effect only at a 5 μM dose, and not at the lower doses tested (0.3, 1 and 3 μM)”. For the same molecule, the “toxicity to cultured neurons” value with DRG neurons (beta-carotene 5 μM (not shown)) is “slightly toxic”.
In the case of `N.N.[Cl][Pt][Cl]` [cisplatin], the “relative expression of PIEZO2 (2^-ddCT)” value in data set [4] (cells treated with cisplatin compared to control cells normalized to 1, reference gene 36B4) is reported as 0.40. Moreover, the “effects on Mafb mRNA expression” value in data set [4] (cisplatin 1.25 μg/ml, 0, 4, 8 and 16 h, normalized with 36B4 (FIG. 3)) is given as “not significant”.
On to `O=c1cc(-c2ccc(O)c(O)c2)oc2cc(O)cc(O)c12` [luteolin, Luteolin], for which the “effect on Piezo2, CaVα2δ-1 and ARNT2 expression, molecule taken alone” value in data set [1] is on record as “does not appear to bring any improvement”. Besides, the “effect on the morphology of DRG neurons (cell or network level)” value with DRG neurons is “does not appear to bring any improvement”.
Regarding cobalamin [vitamin B12], in data set [1] (dose of 25 and 50 μM, 24 h, 1.25 μg/ml cisplatin (FIG. 7)), the “effect of vitamin B12 taken alone on gene expression” value is on record as “no effect”. Further, in data set [1], the “effect on Piezo2, CaVα2δ-1 and ARNT2 expression, molecule taken alone” value is “does not appear to have a conclusive chemoprotective effect”. For the same molecule, in the data set with DRG neurons (vitamin B12 at a dose of 50 μM (not shown)), the “toxicity to neuronal morphology” value is “some toxicity”.
